Experimental findings from US20100137239A1, “GEMCITABINE COMBINATION THERAPY” (GLOUCESTER PHARMACEUTICALS, priority 2006, published 2010) are described below.

Several values for one entry are separate records, joined by “and”; a condition that tells them apart may be missing. Identical values can stand only once.

Data set [1] in a line: BxPC-3 study: animal weight and drug toxicity. An excerpt:
(§1) Model Information—Female nude mice (nu/nu) between 5 and 6 weeks of age weighing approximately 20 grams were obtained from Harlan, Inc. (Madison, Wis.). PANC-1, obtained from the ATCC, is a pancreas tumor cell line originating from a person^(1-2). BxPC-3, obtained from the American Type Culture Collection (ATCC), is a pancreas tumor cell line originating from a person^(3-4). PANC-1 Study: Animals were implanted subcutaneously (SC) by trocar with fragments of PANC-1 harvested from SC growing tumors in nude mice hosts. When tumors grew to approximately 135 cubic millimeters (mm^3) in size (17 days following implantation, animals were pair-matched by tumor size into treatment and control groups; each treatment group contained nine mice. BxPC-3 Study: Animals were implanted subcutaneously (SC) by trocar with fragments of BxPC-3 harvested from SC growing tumors in nude mice hosts. When tumors grew to approximately 85 cubic millimeters (mm^3) in size (19 days following implantation), animals were pair-matched by tumor size into treatment and control groups; each treatment group contained nine mice. Animals in both studies were ear-tagged and followed individually throughout the experiment.
(§2) Study Design and Dosing—Initial doses were administered on Day 1 following pair-matching; both experiments were carried out as tumor growth inhibition (TGT) studies. Animals were dosed intravenously (IV) via tail vein with FK228 once every four days for three treatments (Q4Dx3) or by intraperitoneal (IP) injection with gemcitabine once every three days for four treatments (Q3Dx4), either alone or in combination, at the doses listed below (Table 1). To serve as a negative control, FK228 vehicle (2% ethanol, 8% propylene glycol, 90% 0.9% saline) was injected on a Q4Dx3 schedule.
(§3) Animal Weights—Individual and group mean weights ±SD and percent weight change through Day 25 (PANC-1) or Day 29 (BxPC-3) were recorded twice weekly until study completion beginning Day 1. Final group mean weights ±SD and group nadir values are reported; weight data from individual animals experiencing technical or drug-related deaths was censored from final group calculations.
(§4) Moribundity/Mortality—Animals were observed twice weekly for general moribundity and daily for mortality. Animal deaths were assessed as drug-related or technical based on factors including gross observation and weight loss; reported animal death information includes type, number, and day of death for each group.
(§5) Statistics—Statistical analyses were carried out between treated and control groups comparing final weight, percent weight change, and tumor growth inhibition (Appendix III). For these groups, a two-tailed One-Way Analysis of Variance (ANOVA) followed by the Dunnett multiple comparisons test was employed. All analyses are performed using GraphPad Prism® software (version 4.0). Weight and tumor data from individual animals experiencing technical or drug-related deaths was censored from analysis.

Another data set has as its system acetylated histone 4. Put plainly: Immunoblot of acetylated histone 4 in PANC-1 xenograft tumors. It is filed as in vivo, human. Conditions: FK228 5 mg/kg Q4Dx3; gemcitabine 80 mg/kg Q3Dx4; tumors at study completion; vs controls. As to the method:
Abstract: To examine activity and mechanism of FK228, antitumor efficacy was tested in PANC-1 pancreatic adenocarcinoma model representing transformed Ras, either as a single agent or in combination with gemcitabine. Following PANC-1 study completion, tumor and sera were obtained from: • the vehicle control; • FK228 dosed at 5 mg/kg once every four days for three treatments (Q4Dx3); • Gemcitabine at 80 mg/kg (Q3Dx4); and • the drug combination. Expression of c-Myc, acetylated histones 3 and 4, and p21^waf1 was compared between control and FK228 groups by immunoblotting and was quantified following actin normalization. Serum levels of putative tumor products b-FGF and MMP-2 were quantified by human-specific ELISA. […]
Tissue Biomarkers: Tumor levels of acetylated histone-4, histone-4, c-Myc, p21waf and β-actin were quantified by immunoblotting as described. […] The chemiluminescence signal was captured by autoradiography, quantified by densitometry and expressed as a ratio of actin in each sample lane. For each biomarker, means and standard errors were calculated in each treatment group. […]
Expression of c-Myc, acetylated histones 3 and 4, and p21^waf1 was compared between control and FK228 groups by immunoblotting and was quantified following actin normalization. Serum levels of putative tumor products b-FGF and MMP-2 were quantified by human-specific ELISA. […]

Data set [2] is described as follows: PANC-1 study: animal weight and drug toxicity.
Text: as §1, §2, §3, §4, §5

Setting [3] is: FK228 2.5 mg/kg IV Q4Dx3, 2.5 mg/kg.
The mark [4] stands for this setting: FK228 5 mg/kg IV Q4Dx3, 5 mg/kg.

As to `C/C=C1\NC(=O)[C@H]2CSSCC/C=C/[C@H](CC(=O)N[C@H](C(C)C)C(=O)N2)OC(=O)[C@H](C(C)C)NC1=O` [FK228, romidepsin], the “FINAL WEIGHT (DAY 29) % CHANGE” value in data set [1] (FK228 2.5 mg/kg IV Q4Dx3) is listed as “+10%”; in data set [1] (FK228 5 mg/kg IV Q4Dx3) it was “+7%”. In addition, the “WEIGHT NADIR % CHANGE” value in data set [1] (FK228 2.5 mg/kg IV Q4Dx3) is given as −5%; in data set [1] (FK228 5 mg/kg IV Q4Dx3) it was −15%; in data set [2] (FK228 2.5 mg/kg IV Q4Dx3), −9%; in data set [2] (FK228 5 mg/kg IV Q4Dx3) it was −12%. Besides, the “WEIGHT NADIR DAY” value in data set [1] (FK228 2.5 mg/kg IV Q4Dx3), in data set [1] (FK228 5 mg/kg IV Q4Dx3), in data set [2] (FK228 2.5 mg/kg IV Q4Dx3) and in data set [2] (FK228 5 mg/kg IV Q4Dx3) was 11 in each case. Also, the “DRUG DEATHS TOTAL” value in data set [1] (setting [3]) was 0/9 and 0; in data set [1] (setting [4]) it was 0/9 and 0; in data set [2] (setting [3]), 0/9 and 0; in data set [2] (setting [4]), 0/9 and 0. The entries for the “FINAL WEIGHT (DAY 29) MEAN(G) ± SD” value in data set [1] (setting [3]) and in data set [1] (setting [4]) were 25±2 G and 24±1 G, respectively. For the same molecule, in the data set on acetylated histone 4, the “increase of acetylated histone 4” value is on record as “over 2 fold”. The “FINAL WEIGHT (DAY 25) % CHANGE” value in data set [2] (FK228 2.5 mg/kg IV Q4Dx3) was “+8%”; in data set [2] (FK228 5 mg/kg IV Q4Dx3), “+9%”. Further, the “FINAL WEIGHT (DAY 25) MEAN(G) ± SD” value is 21 ± 2 G in data set [2] (setting [3]) and 25±2 G in data set [2] (setting [4]).

In the case of `Nc1ccn([C@@H]2O[C@H](CO)[C@@H](O)C2(F)F)c(=O)n1` [Gemcitabine, gemcitabine], in data set [1] (Gemcitabine 40 mg/kg IP Q3Dx4), the “DRUG DEATHS TOTAL” value is 0/9 and 0; the “FINAL WEIGHT (DAY 29) % CHANGE” value was “+9%”; the “weight loss (nadir)” value was “No weight loss”. Also, in data set [1] (Gemcitabine 80 mg/kg IP Q3Dx4), the “DRUG DEATHS TOTAL” value was 0/9 and 0; the “FINAL WEIGHT (DAY 29) % CHANGE” value was “+1%”; the “FINAL WEIGHT (DAY 29) MEAN(G) ± SD” value is 22±4 G and 22 + 4 G; the “WEIGHT NADIR % CHANGE” value was −9%. Moreover, the “WEIGHT NADIR DAY” value in data set [1] (Gemcitabine 80 mg/kg IP Q3Dx4) turned out to be 11. The “increase of acetylated histone 4” value in the data set with acetylated histone 4 was “on the control level”. Further, in data set [2] (Gemcitabine 40 mg/kg IP Q3Dx4), the “DRUG DEATHS TOTAL” value is 0/9 and 0; the “FINAL WEIGHT (DAY 25) % CHANGE” value is given as “+7%”; the “FINAL WEIGHT (DAY 25) MEAN(G) ± SD” value was determined as 24±1 G; the “WEIGHT NADIR % CHANGE” value is −2%. The “WEIGHT NADIR DAY” value in data set [2] (Gemcitabine 40 mg/kg IP Q3Dx4) is 11. Also, in data set [2] (Gemcitabine 80 mg/kg IP Q3Dx4), the “DRUG DEATHS TOTAL” value was 0/9 and 0; the “FINAL WEIGHT (DAY 25) % CHANGE” value is listed as “+12%”; the “FINAL WEIGHT (DAY 25) MEAN(G) ± SD” value is on record as 26±3 G; the “WEIGHT NADIR % CHANGE” value is given as −3%. Besides, the “WEIGHT NADIR DAY” value in data set [2] (Gemcitabine 80 mg/kg IP Q3Dx4) was 11.
